According to patent US11987648B2, “Cyclohexapeptides as selective somatostatin SST5 receptor agonists” (Heptares Therapeutics Limited, priority 2018, dated 2024):
*1 amine or outer side, *2 acyl side, *3 side chain or, on linkers, in order; H or OH if unused. Where a SMILES comes first, the peptide text is derived from it. Side-chain parts run from the residue outwards. [ ]: non-standard residue; d: D form. The star is where a group is joined. Ala(piperidin-4-yl) = O=C([C@H](CC1CCN([*:3])CC1)N[*:1])[*:2]; dTrp(4-OMe) = COc1cccc2[nH]cc(C[C@@H](N)C(=O)O)c12; X8 = COc1cc2c(cc1OC)CN([*:1])[C@H](C(=O)[*:2])C2; dTrp(4-Me) = Cc1cccc2[nH]cc(C[C@@H](N)C(=O)O)c12; Ala(piperazin-1-yl) = N[C@@H](CN1CCNCC1)C(=O)O; Tyr(Ph) = N[C@@H](Cc1ccc(Oc2ccccc2)cc1)C(=O)O; Phe(4-Cl) = N[C@@H](Cc1ccc(Cl)cc1)C(=O)O; Morpholine(3S-CO) = O=C(O)[C@@H]1COCCN1; Ethylenediamine = C(CN[*:2])N[*:1]; d(hPhe) = N[C@H](CCc1ccccc1)C(=O)O; Hyp = O=C(O)[C@@H]1C[C@@H](O)CN1; NMeF = CN[C@@H](Cc1ccccc1)C(=O)O; hPhe = N[C@@H](CCc1ccccc1)C(=O)O; 3Pal = N[C@@H](Cc1cccnc1)C(=O)O; Cyclohexylmethyl = C1CCC(C*)CC1; Tic = O=C(O)[C@@H]1Cc2ccccc2CN1; Benzyl(4-Cl) = Clc1ccc(C*)cc1; Phg = N[C@H](C(=O)O)c1ccccc1; X9 = O=C(C1CNCCN1[*:1])[*:2]; CO = O=C([*:1])[*:2]; Bn = c1ccc(C*)cc1; X4 = C1CC(C*)C1

Key:
SST5 = SST5 (Homo sapiens, UniProt P35346); assay: Hit Hunter cAMP XS+ assay, SST5 activation via Gi (reduction of forskolin-stimulated cAMP); assay type: cell-based; conditions: for Emax: read-out: SST5 (EMax); for EC50: reduction of forskolin-stimulated cAMP, 4-parameter logistic fit, read-out: SST5 pEC50 (converted); for SST5/2 Selectivity: selectivity for SST5 over SST2
Outline: (§1)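 Cells (10,000/well) incubated 30 min at 37 °C with compound under EC80 forskolin ([…] for SST2, 15 μM for SST5). cAMP reduction was detected by enzyme-fragment complementation chemiluminescence after 60 min and 180 min room-temperature reagent steps. Potency and efficacy were both measured.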

SST2 = SST2 (Homo sapiens, UniProt P30874); assay: Hit Hunter cAMP XS+ assay, SST2 activation via Gi (reduction of forskolin-stimulated cAMP); assay type: cell-based; conditions: for Emax: read-out: SST2 (EMax); for EC50: reduction of forskolin-stimulated cAMP, 4-parameter logistic fit, read-out: SST2 pEC50 (converted)
Outline: as §1

Chain of SST2 (P30874 whole entry): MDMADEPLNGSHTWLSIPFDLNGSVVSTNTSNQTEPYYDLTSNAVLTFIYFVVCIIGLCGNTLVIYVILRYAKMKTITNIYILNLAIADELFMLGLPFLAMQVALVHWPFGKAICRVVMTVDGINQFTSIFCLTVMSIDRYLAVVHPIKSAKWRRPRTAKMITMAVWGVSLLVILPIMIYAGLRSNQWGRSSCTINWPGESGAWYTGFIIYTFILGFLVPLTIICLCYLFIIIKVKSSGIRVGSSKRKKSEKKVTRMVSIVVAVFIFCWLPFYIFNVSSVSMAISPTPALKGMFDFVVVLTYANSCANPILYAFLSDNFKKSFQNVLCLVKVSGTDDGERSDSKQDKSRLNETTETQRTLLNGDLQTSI
Chain of SST5 (P35346 whole entry, the tested form may be a part): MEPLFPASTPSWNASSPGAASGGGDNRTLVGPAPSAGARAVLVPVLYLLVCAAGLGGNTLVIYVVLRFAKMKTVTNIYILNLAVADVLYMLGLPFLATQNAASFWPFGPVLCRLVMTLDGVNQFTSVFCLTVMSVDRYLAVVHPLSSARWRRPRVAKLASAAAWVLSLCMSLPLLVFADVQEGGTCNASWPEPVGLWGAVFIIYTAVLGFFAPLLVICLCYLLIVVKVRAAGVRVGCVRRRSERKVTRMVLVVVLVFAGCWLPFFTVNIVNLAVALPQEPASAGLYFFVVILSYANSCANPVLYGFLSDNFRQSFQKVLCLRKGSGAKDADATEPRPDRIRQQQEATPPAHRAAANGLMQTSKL

SMILES | Emax (SST5) | EC50 (SST5) | SST5/2 Selectivity (SST5) | Emax (SST2) | EC50 (SST2)
NCCNC(=O)O[C@@H]1C[C@H]2C(=O)N[C@@H](CCc3ccccc3)C(=O)N[C@H](Cc3c[nH]c4ccccc34)C(=O)N[C@@H](CC3CCNCC3)C(=O)N[C@@H](Cc3ccc(OCC4CCC4)cc3)C(=O)N[C@@H](Cc3cccnc3)C(=O)N2C1 [Example 50] (cyclo([3Pal][Hyp]([CO-Ethylenediamine])[hPhe][dW][Ala(piperidin-4-yl)]Y(X4))) | 103% | 15.8 nM | 41.1 | 95.4% | 631 nM
NCCNC(=O)O[C@@H]1C[C@H]2C(=O)N[C@@H](CCc3ccccc3)C(=O)N[C@H](Cc3c[nH]c4ccccc34)C(=O)N[C@@H](CN3CCNCC3)C(=O)N[C@@H](Cc3ccc(OCc4ccccc4)cc3)C(=O)N[C@@H](Cc3ccc(Cl)cc3)C(=O)N2C1 [Example 51] (cyclo([Hyp]([CO-Ethylenediamine])[hPhe][dW][Ala(piperazin-1-yl)]Y(Bn)[Phe(4-Cl)])) | 106% | 0.0794 nM | 64.3 | 100% | 5.01 nM
NCCNC(=O)O[C@@H]1C[C@H]2C(=O)N[C@@H](CCc3ccccc3)C(=O)N[C@H](Cc3c[nH]c4ccccc34)C(=O)N[C@@H](CN3CCNCC3)C(=O)N[C@@H](Cc3ccc(OCC4CCCCC4)cc3)C(=O)N[C@@H](Cc3cccnc3)C(=O)N2C1 [Example 52] (cyclo([3Pal][Hyp]([CO-Ethylenediamine])[hPhe][dW][Ala(piperazin-1-yl)]Y(Cyclohexylmethyl))) | 107% | 0.158 nM | 2108.2 | 96.8% | 398 nM
NCCNC(=O)O[C@@H]1C[C@H]2C(=O)N[C@H](CCc3ccccc3)C(=O)N[C@H](Cc3c[nH]c4ccccc34)C(=O)N[C@@H](CC3CCNCC3)C(=O)N[C@@H](Cc3ccc(OCC4CCCCC4)cc3)C(=O)N[C@@H](Cc3cccnc3)C(=O)N2C1 [Example 53] (cyclo([3Pal][Hyp]([CO-Ethylenediamine])[d(hPhe)][dW][Ala(piperidin-4-yl)]Y(Cyclohexylmethyl))) | 103% | 31.6 nM | 293.1 | 50.9% | > 10000 nM
NCCNC(=O)O[C@@H]1C[C@H]2C(=O)N[C@@H](CCc3ccccc3)C(=O)N[C@H](Cc3c[nH]c4ccccc34)C(=O)N[C@@H](CC3CCNCC3)C(=O)N[C@@H](Cc3ccc(OCC4CCCCC4)cc3)C(=O)N[C@@H](Cc3cccnc3)C(=O)N2C1 [Example 54] (cyclo([3Pal][Hyp]([CO-Ethylenediamine])[hPhe][dW][Ala(piperidin-4-yl)]Y(Cyclohexylmethyl))) | 104% | 0.501 nM | 1083.5 | 96.2% | 631 nM
COc1ccc(C[C@@H]2NC(=O)[C@H](Cc3ccc(OCc4ccccc4)cc3)NC(=O)[C@H](CC3CCNCC3)NC(=O)[C@@H](Cc3c[nH]c4ccccc34)NC(=O)[C@@H](CCc3ccccc3)NC(=O)[C@@H]3C[C@@H](OC(=O)NCCN)CN3C2=O)cc1 [Example 55] (cyclo([Hyp]([CO-Ethylenediamine])[d(hPhe)][dW][Ala(piperidin-4-yl)]Y(Bn)Y(Me))) | 106% | 10 nM | 1120.0 | 85.9% | > 10000 nM
CN1C(=O)[C@H](Cc2ccc(OCc3ccccc3)cc2)NC(=O)[C@H](CN2CCNCC2)NC(=O)[C@@H](Cc2c[nH]c3ccccc23)NC(=O)[C@H](CCc2ccccc2)NC(=O)[C@@H]2C[C@@H](OC(=O)NCCN)CN2C(=O)[C@@H]1Cc1ccccc1 [Example 57] (cyclo([Hyp]([CO-Ethylenediamine])[hPhe][dW][Ala(piperazin-1-yl)]Y(Bn)[NMeF])) | 102% | 0.501 nM | 404.6 | 96.5% | 200 nM
NCCNC(=O)O[C@@H]1C[C@H]2C(=O)N[C@H](CCc3ccccc3)C(=O)N[C@H](Cc3c[nH]c4ccccc34)C(=O)N[C@@H](CN3CCNCC3)C(=O)N[C@@H](Cc3ccc(OCc4ccc(Cl)cc4)cc3)C(=O)N[C@@H](Cc3cccnc3)C(=O)N2C1 [Example 58] (cyclo([3Pal][Hyp]([CO-Ethylenediamine])[d(hPhe)][dW][Ala(piperazin-1-yl)]Y(Benzyl(4-Cl)))) | 103% | 15.8 nM | 695.7 | 42.9% | > 10000 nM
NCCNC(=O)O[C@@H]1C[C@H]2C(=O)N[C@@H](CCc3ccccc3)C(=O)N[C@H](Cc3c[nH]c4ccccc34)C(=O)N[C@@H](CN3CCNCC3)C(=O)N[C@@H](Cc3ccc(OCc4ccc(Cl)cc4)cc3)C(=O)N[C@@H](Cc3cccnc3)C(=O)N2C1 [Example 59] (cyclo([3Pal][Hyp]([CO-Ethylenediamine])[hPhe][dW][Ala(piperazin-1-yl)]Y(Benzyl(4-Cl)))) | 106% | 0.631 nM | 738.9 | 95.7% | 501 nM
Cc1cccc2[nH]cc(C[C@H]3NC(=O)[C@H](CCc4ccccc4)NC(=O)[C@@H]4C[C@@H](OC(=O)NCCN)CN4C(=O)[C@H](Cc4cccnc4)NC(=O)[C@H](Cc4ccc(OCc5ccccc5)cc4)NC(=O)[C@H](CC4CCNCC4)NC3=O)c12 [Example 60] (cyclo([3Pal][Hyp]([CO-Ethylenediamine])[hPhe][dTrp(4-Me)][Ala(piperidin-4-yl)]Y(Bn))) | 104% | 1 nM | 129.4 | 99.8% | 126 nM
O=C1N[C@@H](Cc2ccc(OCc3ccccc3)cc2)C(=O)N2Cc3ccccc3C[C@H]2C(=O)N2CCOC[C@H]2C(=O)N[C@H](CCc2ccccc2)C(=O)N[C@H](Cc2c[nH]c3ccccc23)C(=O)N[C@H]1CN1CCNCC1 [Example 61] (cyclo([Tic][Morpholine(3S-CO)][d(hPhe)][dW][Ala(piperazin-1-yl)]Y(Bn))) | 103% | 31.6 nM | 291.4 | 23.4% | > 10000 nM
O=C1N[C@@H](Cc2ccc(OCc3ccccc3)cc2)C(=O)N2Cc3ccccc3C[C@H]2C(=O)N2CCOC[C@H]2C(=O)N[C@H](CCc2ccccc2)C(=O)N[C@H](Cc2c[nH]c3ccccc23)C(=O)N[C@H]1CC1CCNCC1 [Example 62] (cyclo([Tic][Morpholine(3S-CO)][d(hPhe)][dW][Ala(piperidin-4-yl)]Y(Bn))) | 102% | 3.16 nM | 224.3 | 99.4% | 631 nM
COc1cccc2[nH]cc(C[C@H]3NC(=O)[C@@H](CCc4ccccc4)NC(=O)[C@@H]4COCCN4C(=O)[C@@H]4Cc5ccccc5CN4C(=O)[C@H](Cc4ccc(OCc5ccccc5)cc4)NC(=O)[C@H](CN4CCNCC4)NC3=O)c12 [Example 63] (cyclo([Tic][Morpholine(3S-CO)][d(hPhe)][dTrp(4-OMe)][Ala(piperazin-1-yl)]Y(Bn))) | 104% | 2.51 nM | 24.4 | 102% | 63.1 nM
COc1cccc2[nH]cc(C[C@H]3NC(=O)[C@H](c4ccccc4)NC(=O)[C@@H]4C[C@@H](OC(=O)NCCN)CN4C(=O)[C@H](Cc4ccccc4)NC(=O)[C@H](Cc4ccc(OCc5ccccc5)cc4)NC(=O)[C@H](CN4CCNCC4)NC3=O)c12 [Example 64] (cyclo(F[Hyp]([CO-Ethylenediamine])[Phg][dTrp(4-OMe)][Ala(piperazin-1-yl)]Y(Bn))) | 104% | 15.8 nM | 5.5 | 100% | 100 nM
O=C1N[C@@H](CCc2ccccc2)C(=O)N[C@H](Cc2c[nH]c3ccccc23)C(=O)N[C@@H](CN2CCNCC2)C(=O)N[C@@H](Cc2ccc(OCc3ccccc3)cc2)C(=O)N2Cc3ccccc3C[C@H]2C(=O)N2CCNCC12 (stereo partly drawn) [Example 65] (cyclo([Tic][X9][hPhe][dW][Ala(piperazin-1-yl)]Y(Bn))) | 99.4% | 0.398 nM | 2293.7 | 91.8% | 1000 nM
COc1cc2c(cc1OC)CN1C(=O)[C@H](Cc3ccc(OCc4ccccc4)cc3)NC(=O)[C@H](CC3CCNCC3)NC(=O)[C@@H](Cc3c[nH]c4ccccc34)NC(=O)[C@H](CCc3ccccc3)NC(=O)[C@@H]3C[C@@H](OC(=O)NCCN)CN3C(=O)[C@@H]1C2 [Example 66] (cyclo([Hyp]([CO-Ethylenediamine])[hPhe][dW][Ala(piperidin-4-yl)]Y(Bn)[X8])) | 103% | 1.26 nM | 7454.5 | 51.1% | > 10000 nM
NCCNC(=O)O[C@@H]1C[C@H]2C(=O)N[C@@H](CCc3ccccc3)C(=O)N[C@H](Cc3c[nH]c4ccccc34)C(=O)N[C@@H](CC3CCNCC3)C(=O)N[C@@H](Cc3ccc(Oc4ccccc4)cc3)C(=O)N[C@@H](Cc3cccnc3)C(=O)N2C1 [Example 67] (cyclo([3Pal][Hyp]([CO-Ethylenediamine])[hPhe][dW][Ala(piperidin-4-yl)][Tyr(Ph)])) | 104% | 15.8 nM | 25.7 | 98.3% | 398 nM
COc1cccc2[nH]cc(C[C@H]3NC(=O)[C@H](CCc4ccccc4)NC(=O)[C@@H]4COCCN4C(=O)[C@@H]4Cc5ccccc5CN4C(=O)[C@H](Cc4ccc(OCc5ccccc5)cc4)NC(=O)[C@H](CN4CCNCC4)NC3=O)c12 [Example 68] (cyclo([Tic][Morpholine(3S-CO)][hPhe][dTrp(4-OMe)][Ala(piperazin-1-yl)]Y(Bn))) | 98.8% | 0.316 nM | 791.6 | 99.1% | 251 nM
